Measurements from patent US20250283124A1, “POLYHYDROXYALKANOATE-PRODUCING BACTERIA AND METHODS FOR MAKING AND USING THEM” (SAN DIEGO STATE UNIVERSITY (SDSU) FOUNDATION, DBA SAN DIEGO …, priority 2021, published 2025).

System: LW8
Assay: Antibiotic susceptibility testing (antibiotic disks), strain LW8
Type: cell-based, Methylosinus sp.
Conditions: antibiotic disks on solid P0% media, methane:air, one week, disk content as in column head
Procedure: Antibiotic Resistance Tests: To identify genetic markers suitable for genetic manipulation of PHA producing cultures, an antibiotic-resistance screening using antibiotic disks was performed. All strains were plated onto solid P0% media by spreading, then up to 4 antibiotic disks were placed on top. The plates were incubated under methane:air for one week and then were evaluated.

How did the “Antibiotic susceptibility testing (AST) results” value turn out when [H]/N=C(/N)N[C@H]1[C@H](O)[C@@H](O)[C@H](O[C@@H]2O[C@@H](C)[C@](O)(C=O)[C@H]2O[C@@H]2O[C@@H](CO)[C@H](O)[C@@H](O)[C@@H]2NC)[C@@H](N/C(N)=N\[H])[C@@H]1O [Streptomycin] was run?
The value was “Resistant”.
